Tests used:
Type in all cases: cell-based, human
HUVEC [1] = experiment: Time-lapse chemokinesis assay; details: HUVEC on gelatin, 4 hours time-lapse, peptide 200 nM, FIG. 5B
Method: (§1) FIG. 5. Controlled TCPTP activation inhibits VEGF-driven capillary formation, chemokinesis and chemotaxis. (A) HUVEC were cultured in fibrin gels and treated with or without VEGF and TAT peptides (200 nM). After 24 h the formation of capillary tubes was semiquantitatively scored. (B) HUVEC were plated on gelatin in the presence of the peptides (200 nM) or left untreated for 1 h. The cells were stimulated as indicated and migration of individual cells was tracked using time-lapse microscopy. Cumulative migration distance was plotted for randomly picked individual cells. (C) HUVEC were treated with 200 nM peptides and the transmigration assay was performed as in FIG. 3D. (D) HUVEC were transfected with siRNA against TCPTP or a control siRNA, and TCPTP expression was analysed with immunofluorescence. Equal exposures of TCPTP (green) and DAPI (blue) stainings are shown. 48 h post-transfection cells were subjected to transmigration assay as in […].
FIG. 9. TCPTP activation by α1-peptide inhibits VEGF induced chemokinesis. HUVEC were plated on gelatin in the presence of the peptides (200 nM) or left untreated for 1 h. The cells were stimulated as indicated and migration of individual cells was tracked using time-lapse microscopy. Representative images of individual cells overlayed with their migration patterns (different colours) at the indicated time points are shown.
Time-lapse chemokinesis assays. HUVEC were plated on gelatin-coated wells and allowed to attach for 1 h in the presence or absence of 200 nM α1TAT or ScrTAT and 20 ng/ml VEGF. Migration of individual cells was recorded at 5 min intervals for 4 h using 20× objective and digital video recording. The migration pathway of at least ten randomly picked cells was tracked using the Metamorph program. The cumulative migration distances were also plotted.

VEGFR2 = VEGFR2 kinase activity from HUVEC lysates (Kinase-Glo Plus); details: FIG. 4B
Method: (A) Serum-starved subconfluent HUVEC were treated for 1 h with α1 integrin cytoplasmic tail fusion peptide (α1TAT) or TAT-scramble control fusion peptide (ScrTAT) (both at 200 nM) followed by VEGF-induction (100 ng/ml, 15 min) where indicated. Cell lysates were resolved on SDS-PAGE and immunoblotted for phosphorylated VEGFR2 (or tubulin as a control). (B) HUVEC were treated as in (A) and VEGFR2 kinase activity (mean±SD, n=3) was measured from the cell lysates. **, p<0.01. (C) Recombinant, purified TCPTP was incubated with α1 or α2 cytoplasmic tail peptides (L-amino acids) or with α1 and scrambled TAT peptides (D-amino acids) and analyzed for phosphatase activity (mean±SD, n=3).
VEGFR2 kinase activity was studied using Kinase-Glo Plus kinase assay kit according to manufacturer's protocol (Promega) with 25 µM ATP. Briefly, HUVEC plated on gelatin were serum-starved overnight, treated with 400 nM α1TAT or ScrTAT or left untreated and stimulated with 100 ng/ml VEGF for 15 min, when indicated. The cells were lysed to ice-cold lysis buffer (1% NP-40, 20 mM Hepes pH 7.4, 150 mM NaCl, 10% glycerol, 2.5 mM EDTA, complete protease inhibitor (Roche) and phosphatase inhibitor coctails I and II (Sigma)). The lysates were incubated in anti-VEGFR2 or control IgG-coated wells with shaking for 2 h and washed 3 times with lysis buffer and 3 times with cold kinase assay buffer (20 mM Hepes pH 8, 0.1 mM Na3VO4, 10 mM MnCl2, 1 mM DTT). Kinase assay was performed for 10 min at +37° C.

HUVEC [2] = experiment: Transwell chemotaxis assay towards VEGF
Method: FIG. 3. TCPTP activity controls VEGF-dependent responses in endothelial cells. (A) HUVEC were transfected with the constitutively active TCPTP (TC37) or vector control (pCG), stimulated or not with VEGF, and stained for VEGFR2 (red) and nuclei (blue) after fixation and permeabilization. Arrows indicate VEGFR2 vesicles. (B) HUVEC were treated as in (A) and subjected to trypsin digestion on ice. VEGFR2 protected from trypsin (=internalized pool) was detected by immunoblotting. The intensities of VEGFR2 bands were quantified and are expressed relative to pCG-VEGF control. A representative experiment out of 2 with similar results is shown. (C) HUVEC were transfected with no oligo, siRNA against TCPTP or a control siRNA, and TCPTP expression was measured using immunoblotting. Cells were treated with 80 ng/ml VEGF and proliferation of sparse cells plated on gelatin was assayed after 16 h using BrdU-based assay (mean±SD; n=4-6; *, p<0.05). (D) HUVEC were transfected as in (A) and chemotaxis towards VEGF was measured using a Transwell assay for 4 hours. Cells adhering to the bottom of the filter were fixed and stained with crystal violet. Number of migrated cells was counted (mean±SEM, n=3).
as §1
Chemotaxis assays. HUVEC electroporated with the DNA or siRNA or non-transfected HUVEC were treated with 200 nM α1TAT, ScrTAT or left untreated for 1 h. Transwell filters (8 μm pore size, Costar, Cambridge, Mass.) were coated with gelatin and medium (RPMI, 4 mM L-glutamine, 10% FBS) and VEGF (100 ng/ml) were added to the lower chamber. Cells were harvested from the culture plates, and transferred into the Transwell inserts (4×10^5 cells/well) in RPMI with 0.2% soybean trypsin inhibitor. […] The inserts were fixed in 4% paraformaldehyde, cells stained with 0.5% crystal violet and the number of migrated cells was counted using a microscope.

HUVEC [3] = experiment: Fibrin-gel in vitro angiogenesis (capillary tube formation) assay; details: VEGF, 24 h, FIG. 5A
Method: as §1
Tube formation assays. In the fibrin-gel in vitro angiogenesis assay (Chemicon) HUVEC were plated onto a fibrin-gel, and overlaid with a second fibrin-gel after an overnight culture. […] At the 24 h end-point the formation of cellular networks was quantified from three randomly-selected fields from each well. […] In the collagen overlay assay the number of closed polygons formed by capillary tubes was quantified.

[4] = HUVEC, 48 h post-transfection, FIG. 5D

Sequence	inhibition of VEGF-induced chemokinesis (HUVEC [1])	increase of VEGFR2 kinase activity upon VEGF-stimulation (VEGFR2; HUVEC treated with no peptide or with scrambled control TAT peptide)	effect on VEGF induced chemotaxis of TCPTP siRNA-treated cells (HUVEC [2]; [4])	effect on VEGF-induced migration of scrambled siRNA treated cells (HUVEC [2]; [4])	inhibition of VEGF-induced chemotaxis of HUVEC (HUVEC [2]; peptide 200 nM, Transwell 4 h, FIG. 5C)	inhibition of capillary tube formation compared to control peptide treated cells (HUVEC [3])	inhibition of capillary tube formation compared to non-treated cells (HUVEC [3])	kinase activity of VEGFR2 in VEGF-treated HUVEC (VEGFR2; VEGF 100 ng/ml 15 min)
YGRKKRRQRRRLKGWRFKLKPKFKEMK (SEQ ID NO 8) [ScrTAT, reference compound]	no significant effect	about 10 fold	–	–	–	–	–	–
YGRKKRRQRRRWKLGFFKRPLKKKMEK (SEQ ID NO 3) [α1TAT]	76±4%	–	no inhibitory effects	effectively inhibited	inhibited	40%	60%	completely abolished

Source: US20100160228A1, “METHOD FOR INHIBITING OR STIMULATING ANGIOGENESIS IN AN INDIVIDUAL” (VALTION TEKNILLINEN TUTKIMUSKESKUS, priority 2007, published 2010)
